The values below come from ChEMBL document CHEMBL1127692, “Application of the three-dimensional structures of protein target molecules in structure-based drug design” (J Med Chem, 1994).

Values after ≈ are worked out from the molar mass of the structure shown.

Usually IC50 stands for the point on the concentration scale where inhibition reaches its midpoint. Low readings indicate greater potency in that assay, high ones weaker potency in that assay. In general, Ki refers to the equilibrium dissociation constant of an inhibitor or competing ligand from its target. Read a high Ki as a looser hold on the target. For orientation: solubility means how much of the substance goes into solution per volume. High values mean much dissolved substance, low ones little dissolved substance. For orientation: EC50 means the concentration that produces a half-maximal response. High values mean a less potent agent, low ones a more potent agent.

Data set [1] concerns L1210. Briefly: cells. To be noted: Mus musculus.
Description: Compound was evaluated for the inhibitory activity of L1210 cells
The target of data set [2] is Thymidylate synthase (Homo sapiens, UniProt P04818).
Description: Compound was evaluated for the inhibitory constant of human thymidylate synthase
Data set [3] concerns the target Human immunodeficiency virus type 1 protease (Human immunodeficiency virus 1) (UniProt Q72874).
Description: Compound was evaluated for the thymidine reversal of HIV-1 protease
A short description of data set [4]: Compound was evaluated for the solubility at the pH 7.4. Type of data set: ADME. The conditions noted are these: buffer.
For data set [5], the target named is T1, Human immunodeficiency virus type 1 protease (Human immunodeficiency virus 1, UniProt Q72874).
Description: Compound was evaluated for the inhibitory activity against HIV-1 protease
Data set [6] has as its target T1, Human immunodeficiency virus type 1 protease. The source holds these as a separate data set.
Description: Effective concentration of compound for inhibition of HIV 1 protease was determined
The target is the same in data set [7]. This is another data set of the same source.
Description: Inhibition of HIV-1 protease
The target of data set [8] is Carbonic anhydrase 2 (Homo sapiens, UniProt P00918).
Description: Compound was evaluated for the inhibitory constant towards Human Carbonic anhydrase II (HCA II)

Thymidylate synthase, sequence (P04818 whole entry): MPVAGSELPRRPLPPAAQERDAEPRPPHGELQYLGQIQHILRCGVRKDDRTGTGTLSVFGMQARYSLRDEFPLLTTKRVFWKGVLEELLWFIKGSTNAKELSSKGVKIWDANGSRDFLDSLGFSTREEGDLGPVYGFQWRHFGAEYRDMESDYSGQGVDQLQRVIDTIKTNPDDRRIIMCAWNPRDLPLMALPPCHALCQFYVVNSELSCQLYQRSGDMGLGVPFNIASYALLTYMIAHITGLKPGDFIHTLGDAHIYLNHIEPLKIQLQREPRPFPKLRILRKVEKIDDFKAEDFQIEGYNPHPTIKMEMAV

Turning to `CNC1=Nc2ccc(N(C)Cc3ccc(S(=O)(=O)N4CCOCC4)cc3)c3c(C)ccc1c23`, the IC50 in data set [1] was found to be 150 nM. The compound further yielded a Ki in data set [2] of 2 nM. Also, the Thymidine reversal in data set [3] amounted to 12.7.

For the compound `CN(Cc1ccc(S(=O)(=O)c2ccccc2)cc1)c1ccc2c3c(cccc13)C(N)=N2`, the Thymidine reversal in data set [3] turned out to be 2.3.

In data set [4], `CC(C)[C@H](NC(=O)OCc1ccccn1)C(=O)N[C@@H](Cc1ccccc1)[C@H](O)[C@H](O)[C@H](Cc1ccccc1)NC(=O)[C@@H](NC(=O)OCc1ccccn1)C(C)C` showed a solubility of 3.1 µM (≈ 2.38 µg/mL). In data set [5], this compound returned a Ki of 0.09 nM. Moreover, the EC50 in data set [6] amounted to 20 nM.

As to `CC(C)[C@H](NC(=O)N(C)Cc1ccccn1)C(=O)N[C@@H](Cc1ccccc1)[C@H](O)[C@@H](O)[C@H](Cc1ccccc1)NC(=O)[C@@H](NC(=O)N(C)Cc1ccccn1)C(C)C` [A-76928], the solubility in data set [4] is 292 µM (≈ 232 µg/mL). In data set [5], the Ki came out at 1.66 nM. Besides, the concentration for a half-maximal effect (EC50) in data set [6] worked out at 280 nM.

`CC(=O)N[C@@H](Cc1ccccc1)C(O)[C@H](Cc1ccccc1)NC(C)=O`: the IC50 in data set [7] is above 10000 nM.

`CN(Cc1ccc(S(=O)(=O)N2CCOCC2)cc1)c1ccc2c3c(cccc13)C(N)=N2`: in data set [2], the Ki is 2 nM.

In turn, `CC(C)(C)OC(=O)N[C@@H](Cc1ccccc1)[C@@H](O)[C@H](O)[C@H](Cc1ccccc1)NC(=O)OC(C)(C)C` showed an IC50 in data set [7] of 280 nM.

Consider `CC(C)[C@H](NC(=O)N(C)Cc1ccccn1)C(=O)N[C@@H](Cc1ccccc1)CC(O)[C@H](Cc1ccccc1)NC(=O)[C@@H](NC(=O)N(C)Cc1ccccn1)C(C)C` (single isomer, unassigned), for which, in data set [8], the Ki turned out to be 17 nM.

As for `CC(C)[C@H](NC(=O)OCc1ccccn1)C(=O)N[C@@H](Cc1ccccc1)[C@H](O)[C@@H](O)[C@H](Cc1ccccc1)NC(=O)[C@@H](NC(=O)OCc1ccccn1)C(C)C`, the affinity in data set [5], expressed as Ki, was 0.16 nM. This compound also displayed an EC50 in data set [6] of 120 nM.

`CC(C)(C)OC(=O)N[C@@H](Cc1ccccc1)C(O)[C@H](Cc1ccccc1)NC(=O)OC(C)(C)C` came in with an IC50 in data set [7] of 3000 nM.

Regarding `CC(C)[C@H](NC(=O)OCc1ccccc1)C(=O)N[C@@H](Cc1ccccc1)C(O)C(O)[C@H](Cc1ccccc1)NC(=O)[C@@H](NC(=O)OCc1ccccc1)C(C)C` (single isomer, unassigned; 13), the concentration for half-maximal inhibition (IC50) in data set [7] was 0.38 nM.

Compound `CC(=O)N[C@H](C(=O)N[C@H](C(=O)N[C@@H](Cc1ccccc1)C(O)[C@H](Cc1ccccc1)NC(=O)[C@@H](NC(=O)[C@@H](NC(C)=O)C(C)C)C(C)C)C(C)C)C(C)C` showed an IC50 in data set [7] of 10 nM.

Regarding `CC(C)[C@H](NC(=O)N(C)Cc1ccccn1)C(=O)N[C@@H](Cc1ccccc1)[C@H](O)[C@H](O)[C@H](Cc1ccccc1)NC(=O)[C@@H](NC(=O)N(C)Cc1ccccn1)C(C)C` [A-77003], the Ki in data set [8] worked out at 140 nM; in data set [5], 0.15 nM. Besides, in data set [4], the concentration in solution (solubility) was 256 µM (≈ 204 µg/mL). This compound also showed an EC50 in data set [6] of 70 nM.

Turning to `CC(C)[C@H](NC(=O)OCc1ccccc1)C(=O)N[C@@H](Cc1ccccc1)[C@H](O)[C@H](O)[C@H](Cc1ccccc1)NC(=O)[C@@H](NC(=O)OCc1ccccc1)C(C)C`, in data set [7], the IC50 was determined as 0.22 nM.

As to `CC(C)(C)OC(=O)N[C@@H](Cc1ccccc1)[C@H](O)[C@@H](O)[C@H](Cc1ccccc1)NC(=O)OC(C)(C)C`, the IC50 in data set [7] was determined as 40 nM.

In turn, `CC(C)[C@H](NC(=O)OCc1ccccn1)C(=O)N[C@@H](Cc1ccccc1)[C@@H](O)[C@H](O)[C@H](Cc1ccccc1)NC(=O)[C@@H](NC(=O)OCc1ccccn1)C(C)C` gave a solubility in data set [4] of 0.27 µM (≈ 0.208 µg/mL). Also, the Ki in data set [5] worked out at 0.19 nM. The same compound registered an EC50 in data set [6] of 50 nM.

In turn, `CN(Cc1ccc(S(=O)(=O)N2CCOCC2)cc1)c1ccc2c3c(cccc13)C(=N)N2` showed an IC50 in data set [1] of 300 nM. The Thymidine reversal in data set [3] is 8.5.

Regarding `N[C@@H](Cc1ccccc1)C(O)[C@@H](N)Cc1ccccc1`, in data set [7], the IC50 is above 10000 nM.

For the compound `CCN(Cc1ccc(S(=O)(=O)N2CCNCC2)cc1)c1ccc2c3c(cccc13)C(=O)N2`, the Thymidine reversal in data set [3] turned out to be 1.1.

With `CC(C)[C@H](NC(=O)N(C)Cc1ccccn1)C(=O)N[C@@H](Cc1ccccc1)[C@@H](O)[C@H](O)[C@H](Cc1ccccc1)NC(=O)[C@@H](NC(=O)N(C)Cc1ccccn1)C(C)C`, the solubility in data set [4] came out at 4.7 µM (≈ 3.74 µg/mL). For the same compound, the affinity in data set [5], expressed as Ki, was 0.18 nM. The compound also gave an EC50 in data set [6] of 60 nM.

The compound `CC(C)[C@H](N)C(=O)N[C@@H](Cc1ccccc1)C(O)[C@H](Cc1ccccc1)NC(=O)[C@@H](N)C(C)C` had an IC50 in data set [7] of 590 nM.

In the case of `CC(C)[C@H](NC(=O)OCc1ccccc1)C(=O)N[C@@H](Cc1ccccc1)C(O)C(O)[C@H](Cc1ccccc1)NC(=O)[C@@H](NC(=O)OCc1ccccc1)C(C)C` (single isomer, unassigned; 11), 0.22 nM corresponded to half-maximal inhibition in data set [7] (IC50).
